For data set [1], the system named is CYP2C19. Briefly: clinical. Conditions: human, in vivo; for Cl/F / Tmax: po. The method, then:
This was an open-label clinical trial with fixed sequence design consisting of a total of seven inpatient study days and eight short visits for each participant.
The CYP2C19 perpetrator fluconazole (Fluconazol HEXAL® 200 mg, HEXAL) was given for 5 days in oral doses of 400 mg on day 1 and 200 mg on days 2 to 5. […] A diary was used to ensure correct intake of fluconazole and rifampicin at home.
(§1) Blood samples were centrifuged for 10 min at 2500 g and 4 °C, and separated plasma was distributed into 4 aliquots, each stored at − 20 °C until analysis.
The statistical analysis was performed using Prism 8.4 (GraphPad Software Inc., La Jolla, CA, USA).

For data set [2], the system named is CYP2C19. Conditions: cited from earlier work.
In another data set the test system is CYP3A4. Conditions: cited from earlier work.
The test system of the next data set is CYP3A. Put plainly: Calculated metabolic clearance of microdosed midazolam (limited sampling AUC 2-4 h). Particulars: for midazolam metabolic clearance, % of the baseline value: during fluconazole. As for the experimental part:
as §1
Midazolam concentrations in plasma were determined by UPLC-MS/MS.

For data set [3] the following is noted: cited from earlier work.
For data set [4] the following is noted: alteration of gastric pH; cited from earlier work.

Each structure is given as a SMILES string. Where two headings read alike, the source gives them in different places.

Regarding `COc1ccc2[nH]c([S+]([O-])Cc3ncc(C)c(OC)c3C)nc2c1` (stereo not shown) [omeprazole], the “dose-normalized Cmax” value with CYP2C19 [1] came out at 0.896 µg/mL. This compound also registered a clearance with CYP2C19 [1] (100 ug, omeprazole clearance) of 476 mL/min. In addition, the “higher AUC in the poor metabolizer in comparison with the EM group” value in the data set with CYP2C19 [1] (20 mg) amounted to 6.5 fold. In addition, the “higher Cmax in the poor metabolizer in comparison with the EM group” value in the data set on CYP2C19 [1] (20 mg) is “threefold”. Also, the Cl/F came out at 379 mL/min in the data set with CYP2C19 [1] (100 ug) and 388 mL/min in the data set on CYP2C19 [1] (20 mg). The time to peak (Tmax) in the data set on CYP2C19 [1] (100 ug) was 21.8 min; with CYP2C19 [1] (100 ug, tmax (harmonic mean)) it was 15 min; in the data set on CYP2C19 [1] (20 mg, tmax (harmonic mean)), 178 min. For the same compound, the “increase of omeprazole AUC” value in the data set with CYP2C19 [2] (100 mg fluconazole daily for 5 days, healthy volunteers) is given as “sixfold”; with CYP2C19 [2] (8 days of 50 mg fluconazole daily), 2.7–2.8 fold. Moreover, the “omeprazole AUC decreased to” value in the data set with CYP2C19 [2] (rifampicin 150 mg, 8 days, omeprazole microdose) was 22%; in the data set with CYP2C19 [2] (rifampicin 150 mg, 9 days, 20 mg omeprazole), 20%; in the data set on CYP2C19 [2] (rifampicin 6 days, 450 mg daily, 20 mg omeprazole), 12.9%. Moreover, the “bioequivalence to an encapsulated formulation” value with CYP2C19 [2] (uncoated omeprazole with 48 mmol sodium bicarbonate) was “bioequivalent”.
As to `Cc1ncc2n1-c1ccc(Cl)cc1C(c1ccccc1F)=NC2` [midazolam], in the data set on CYP3A4 (600 mg rifampicin daily over 5 days), the “midazolam AUC decrease to % of the baseline value” is 4.1%. Further, the “increase of midazolam AUC” value in the data set on CYP3A4 (oral 7.5 mg midazolam during fluconazole treatment) is 3.6 fold. Besides, the entries for the “midazolam metabolic clearance, % of the baseline value” with CYP3A (with 100 µg omeprazole) and in the data set with CYP3A (with 20 mg omeprazole) were 28% and 26%, respectively. In addition, the figures for the “increase of midazolam metabolic clearance” value with CYP3A (during rifampicin), in the data set with CYP3A (rifampicin day 5) and in the data set with CYP3A (rifampicin day 7) were 10–12 fold, 10.1 fold and 11.9 fold, respectively.
With `OC(Cn1cncn1)(Cn1cncn1)c1ccc(F)cc1F` [fluconazole], the “effect of changes in gastric pH on fluconazole Cmax, tmax, and AUC” value in data set [3] is “did not affect”.
Consider `Cc1c(O)cccc1C(=O)N[C@@H](CSc1ccccc1)[C@H](O)CN1C[C@H]2CCCC[C@H]2C[C@H]1C(=O)NC(C)(C)C` [nelfinavir], for which, in data set [4], the “reduction of nelfinavir AUC by omeprazole” value is on record as “approximately one third” and the “reduction of nelfinavir Cmax by omeprazole” value was “approximately one third”.

For orientation: clearance means a measure of how efficiently the substance is removed, as volume per time. Broadly, the Tmax is the time from dosing to the highest level.

Values taken from PMC9107402 (European Journal of Clinical Pharmacology, 2022).
